Assay results published in US20230022157A1 (Achillion Pharmaceuticals, Inc., priority 2018, published 2023).

biological target: T1, Human Factor D (Homo sapiens, UniProt P00746); assay: Human Factor D Assay; type: biochemical; settings: Human Factor D 80 nM, substrate Z-L-Lys-SBzl, assay of Example 3; read-out: IC50 (Stars)
T1 construct: purified from human serum; purchased Complement Technology, Inc; host or cells: human serum (natural protein, not recombinant)
Outline: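 Serum-purified human factor D (80 nM final) preincubated 5 min at room temperature with test compound in 50 mM Tris, 1M NaCl, pH 7.5. Z-L-Lys-SBzl substrate and DTNB then added, each at 100 μM final. IC50 from nonlinear regression of reaction rate against compound concentration.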

T1 sequence (P00746 26-253): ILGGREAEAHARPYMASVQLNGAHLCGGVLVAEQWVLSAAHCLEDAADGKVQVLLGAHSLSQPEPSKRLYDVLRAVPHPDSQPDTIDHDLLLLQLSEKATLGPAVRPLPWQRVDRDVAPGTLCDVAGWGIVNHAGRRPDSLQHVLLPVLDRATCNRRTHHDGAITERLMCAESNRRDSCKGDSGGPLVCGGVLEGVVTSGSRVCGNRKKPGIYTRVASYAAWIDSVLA

`CC(=O)c1nn(CC(=O)N2[C@H](C(=O)N[C@@H](C)CCc3ccccc3)C[C@@]3(C)C[C@@H]23)c2ccc(-c3cnc(C)nc3)cc12` [Compound 12, (1R,3S,5R)-2-(2-(3-Acetyl-5-(2-methylpyrimidin-5-yl)-1H-indazol-1-yl)acetyl)-5-methyl-N—((S)-4-phenylbutan-2-yl)-2-azabicyclo[3.1.0]hexane-3-carboxamide] and `CC(=O)c1nn(CC(=O)N2C[C@H](F)C[C@H]2C(=O)Nc2cccc(Br)n2)c2ccc(-c3ccc(C)cc3)cc12` [Compound 29, (2S,4R)-1-(2-(3-Acetyl-5-(p-tolyl)-1H-indazol-1-yl)acetyl)-N-(6-bromopyridin-2-yl)-4-fluoropyrrolidine-2-carboxamide] cannot be ordered by IC50: under 1000 nM for the first, under 1000 nM for the second.

same assay, conditions: Human Factor D 80 nM, substrate Z-L-Lys-SBzl; Table 2; read-out: IC50 (Stars)

`COc1cc(Br)nc(NC(=O)[C@@H]2[C@@H]3C[C@@H]3CN2C(=O)Cn2nc(C(C)=O)c3cc(-c4cnc(CO)nc4)cc(C)c32)c1` [Compound 73, (1R,2S,5S)-3-(2-(3-acetyl-5-(2-(hydroxymethyl)pyrimidin-5-yl)-7-methyl-11H-indazol-1-yl)acetyl)-N-(6-bromo-4-methoxypyridin-2-yl)-3-azabicyclo[3.1.0]hexane-2-carboxamide] and `CC(=O)c1nn(CC(=O)N2[C@H](C(=O)Nc3nc(Br)ccc3C)C[C@@]3(C)C[C@@H]23)c2c(C)cc(-c3cnc(CF)nc3)cc12` [Compound 208, (1R,3S,5R)-2-(2-(3-acetyl-5-(2-(fluoromethyl)pyrimidin-5-yl)-7-methyl-1H-indazol-1-yl)acetyl)-N-(6-bromo-3-methylpyridin-2-yl)-5-methyl-2-azabicyclo[3.1.0]hexane-3-carboxamide] cannot be ordered by IC50: under 1000 nM for the first, under 1000 nM for the second.

`CC(=O)c1cn(CC(=O)N2[C@H](C(=O)Nc3nc(Br)c(F)cc3C)C[C@@]3(C)C[C@@H]23)c2c(C)cc(-c3cnc(C(C)O)nc3)cc12` (some centres unmarked) [Compound 158] and `CC(=O)c1cn(CC(=O)N2[C@H](C(=O)Nc3ccc(C)c(Br)n3)C[C@@]3(C)C[C@@H]23)c2c(C)cc(-c3cnc(C)nc3)cc12` [Compound 156, (1R,3S,5R)-2-(2-(3-acetyl-7-methyl-5-(2-methylpyrimidin-5-yl)-1H-indol-1-yl)acetyl)-N-(6-bromo-5-methylpyridin-2-yl)-5-methyl-2-azabicyclo[3.1.0]hexane-3-carboxamide] cannot be ordered by IC50: under 1000 nM for the first, under 1000 nM for the second.

`CC(=O)c1nn(CC(=O)N2[C@H](C(=O)N[C@H](C)C3CCCCC3)C[C@@]3(C)C[C@@H]23)c2c(C)cc(-c3cnc(C)nc3)cc12` [Compound 70, (1R,3S,5R)-2-(2-(3-acetyl-7-methyl-5-(2-methylpyrimidin-5-yl)-1H-indazol-1-yl)acetyl)-N—((R)-1-cyclohexylethyl)-5-methyl-2-azabicyclo[3.1.0]hexane-3-carboxamide] and `CC(=O)c1nn(CC(=O)N2[C@H](C(=O)N[C@@H]3CCCC[C@@H]3C)C[C@@]3(C)C[C@@H]23)c2c(C)cc(-c3cnc(C)nc3)cc12` [Compound 190, (1R,3S,5R)-2-{2-[3-acetyl-7-methyl-5-(2-methylpyrimidin-5-yl)indazol-1-yl]acetyl}-5-methyl-N-[(1R,2S)-2-methylcyclohexyl]-2-azabicyclo[3.1.0]hexane-3-carboxamide] cannot be ordered by IC50: under 1000 nM for the first, under 1000 nM for the second.

Compared with `CC(=O)c1nn(CC(=O)N2[C@H](C(=O)N[C@@H](C)c3ccc4c(c3)CCCC4)C[C@@]3(C)C[C@@H]23)c2c(C)cc(-c3cnc(C)nc3)cc12` [Compound 151, (1R,3S,5R)-2-{2-[3-acetyl-7-methyl-5-(2-methylpyrimidin-5-yl)indazol-1-yl]acetyl}-5-methyl-N-[(1S)-1-(5,6,7,8-tetrahydronaphthalen-2-yl)ethyl]-2-azabicyclo[3.1.0]hexane-3-carboxamide], `CC(=O)c1nn(CC(=O)N2[C@H](C(=O)NC(C)Cc3ccoc3)C[C@@]3(C)C[C@@H]23)c2c(C)cc(-c3cnc(C)nc3)cc12` (stereo partly drawn) [Compound 181, (1R,3S,5R)-2-{2-[3-acetyl-7-methyl-5-(2-methylpyrimidin-5-yl)indazol-1-yl]acetyl}-N-[1-(furan-3-yl)propan-2-yl]-5-methyl-2-azabicyclo[3.1.0]hexane-3-carboxamide] is lower in IC50: 1000 to 10000 nM for the first, under 1000 nM for the second. The second is the more potent here.

`CC(=O)c1nn(CC(=O)N2[C@H](C(=O)N[C@H](c3ccccc3)C(F)(F)F)C[C@@]3(C)C[C@@H]23)c2c(C)cc(-c3cnc(C)nc3)cc12` [Compound 86, (1R,3S,5R)-2-{2-[3-acetyl-7-methyl-5-(2-methylpyrimidin-5-yl)indazol-1-yl]acetyl}-5-methyl-N-[(1R)-2,2,2-trifluoro-1-phenylethyl]-2-azabicyclo[3.1.0]hexane-3-carboxamide] and `C=CCC(Cc1ccccc1)NC(=O)[C@@H]1C[C@@]2(C)C[C@H]2N1C(=O)Cn1nc(C(C)=O)c2cc(-c3cnc(C)nc3)cc(C)c21` (stereo partly drawn) [Compound 174, (1R,3S,5R)-2-{2-[3-acetyl-7-methyl-5-(2-methylpyrimidin-5-yl)indazol-1-yl]acetyl}-5-methyl-N-(1-phenylpent-4-en-2-yl)-2-azabicyclo[3.1.0]hexane-3-carboxamide] cannot be ordered by IC50: under 1000 nM for the first, under 1000 nM for the second.

`CCCCC(NC(=O)[C@@H]1C[C@@]2(C)C[C@H]2N1C(=O)Cn1nc(C(C)=O)c2cc(-c3cnc(C)nc3)cc(C)c21)C(F)(F)F` (stereo partly drawn) [Compound 88, (1R,3S,5R)-2-{2-[3-acetyl-7-methyl-5-(2-methylpyrimidin-5-yl)indazol-1-yl]acetyl}-5-methyl-N-(1,1,1-trifluorohexan-2-yl)-2-azabicyclo[3.1.0]hexane-3-carboxamide] and `CC(=O)c1cn(CC(=O)N2[C@H](C(=O)Nc3nc(C(F)(F)F)ccc3C)C[C@@]3(C)C[C@@H]23)c2c(CF)cc(-c3cnc(C)nc3)cc12` [Compound 239, (1R,3S,5R)-2-(2-(3-acetyl-7-(fluoromethyl)-5-(2-methylpyrimidin-5-yl)-1H-indol-1-yl)acetyl)-5-methyl-N-(3-methyl-6-(trifluoromethyl)pyridin-2-yl)-2-azabicyclo[3.1.0]hexane-3-carboxamide] cannot be ordered by IC50: under 1000 nM for the first, under 1000 nM for the second.

`CC(=O)c1cn(CC(=O)N2[C@H](C(=O)Nc3cncc(Br)n3)C[C@@]3(C)C[C@@H]23)c2c(C)cc(-c3cnc4cc(C)nn4c3)cc12` [Compound 210, (1R,3S,5R)-2-(2-(3-acetyl-7-methyl-5-(2-methylpyrazolo[1,5-a]pyrimidin-6-yl)-1H-indol-1-yl)acetyl)-N-(6-bromopyrazin-2-yl)-5-methyl-2-azabicyclo[3.1.0]hexane-3-carboxamide] and `CC(=O)c1cn(CC(=O)N2[C@H](C(=O)Nc3nc(C(F)(F)F)ccc3C)C[C@@]3(C)C[C@@H]23)c2c(C)cc(-c3cnc4cc(CO)nn4c3)cc12` [Compound 226, (1R,3S,5R)-2-(2-(3-acetyl-5-(2-(hydroxymethyl)pyrazolo[1,5-a]pyrimidin-6-yl)-7-methyl-1H-indol-1-yl)acetyl)-5-methyl-N-(3-methyl-6-(trifluoromethyl)pyridin-2-yl)-2-azabicyclo[3.1.0]hexane-3-carboxamide] cannot be ordered by IC50: under 1000 nM for the first, under 1000 nM for the second.

With `CC(=O)c1cn(CC(=O)N2[C@H](C(=O)Nc3nc(C(F)(F)F)ccc3C)C[C@@]3(C)C[C@@H]23)c2c(C)cc(-c3cnc4c(O)c(C)nn4c3)cc12` [Compound 231, (1R,3S,5R)-2-(2-(3-acetyl-5-(3-hydroxy-2-methylpyrazolo[1,5-a]pyrimidin-6-yl)-7-methyl-1H-indol-1-yl)acetyl)-5-methyl-N-(3-methyl-6-(trifluoromethyl)pyridin-2-yl)-2-azabicyclo[3.1.0]hexane-3-carboxamide] the IC50 was under 1000 nM.
